Series [1] is described as follows: Stability of multibiotic agents in Simulated Intestinal Fluid (SIF). The format is in vitro ADME. To be noted: simulated intestinal fluid pH 6.7 with pancreatin, 37° C., 1 μM. As to the method: Assay 2. Stability of multibiotic agents in Simulated Intestinal Fluid (SIF). This assay can be used to assess the stability of a multibiotic agent in a small intestine. Phosphate buffer was prepared by dissolving 0.42 g of sodium hydroxide pellets and 3.95 g of monobasic sodium phosphate monohydrate and 6.19 g of sodium chloride in ultrapure water (MilliQ®, Millipore Sigma, Darmstadt, Germany). The pH was adjusted to 6.7 using aq. HCl and aq. NaOH, as necessary, and the solution was diluted with ultrapure water to produce 1 L of the pH 6.7 buffer. 112 mg FaSSIF powder (Biorelevant™, London, UK) was dissolved in 50 mL of the pH 6.7 buffer. 2 to 3 mL of the resulting solution were then added to 500 mg pancreatin (Millipore Sigma, Darmstadt, Germany). The resulting mixture was agitated by finger tapping the vessel containing the mixture until milky suspension formed. At this time, the remainder of the 50 mL FaSSiF/pH 6.7 buffer solution was added. The resulting suspension was flipped upside down 10 times to produce SIF, which was used fresh. Test compounds are dissolved in DMSO stock to 1 mM. An aliquot of the DMSO stock solution is removed and diluted in the SIF media in 15 mL falcon tubes to produce a mixture with a tested compound concentration of 1 μM. A 1 mL aliquot is immediately removed and diluted once with 1 volume of acetonitrile for T0 timepoint. The mixture is sealed and agitated at 37° C. in an incubator. Aliquots (1 mL) are removed at regular intervals and immediately quenched by the addition of 1 volume of acetonitrile. The resulting samples are analyzed by LC/MS to determine degradation rates.

A short description of series [2]: Stability of multibiotic agents in Simulated Gastric Fluid (SGF). The series is classed as in vitro ADME. Particulars: simulated gastric fluid pH 1.6 with pepsin, 37° C., 1 μM. The protocol: Assay 3. Stability of multibiotic agents in Simulated Gastric Fluid (SGF). This assay can be used to assess the stability of a multibiotic agent in a stomach.
Medium was prepared by dissolving 2 g of sodium chloride in 0.6 L in ultrapure water (MilliQ®, Millipore Sigma, Darmstadt, Germany). The pH was adjusted to 1.6 with 1 N hydrochloric acid, and the volume was then adjusted to 1 L with purified water.
60 mg FaSSIF powder (Biorelevant™, London, UK) were dissolved in 500 mL buffer (above). Pepsin was added (0.1 mg/mL) (Millipore Sigma, Darmstadt, Germany), and the solution was stirred. The resulting SGF media were used fresh for each experiment.
Test compounds were dissolved in DMSO stock to 1 mM. An aliquot of the DMSO stock solution was removed and diluted in the SGF Media in 15 mL falcon tubes to generate a total compound concentration of 1 μM. A 1 mL aliquot was immediately removed and diluted once with 1 volume of acetonitrile for T0 timepoint. The mixture was sealed and mixed at 37° C. in an incubator. Aliquots (1 mL) were removed at regular intervals and immediately quenched by the addition of 1 volume of acetonitrile. The resulting samples were analyzed by LC/MS to determine degradation rates in SGF.

Results on 17 molecules are retold here after patent publication US20230293458A1, “MULTIBIOTIC AGENTS AND METHODS OF USING THE SAME” (Flagship Pioneering Innovations V, Inc., priority 2017, published 2023).

As to `CCCC(=O)OCC(C)(C)[C@@H](OC(=O)CCC)C(=O)NCCC(N)=O` [Example 95, [(3R)-4-[(3-amino-3-oxo-propyl)amino]-3-butanoyloxy-2,2-dimethyl-4-oxo-butyl] butanoate], the “Assay 3 (SIF) (% @ Remaining 4 hours)” value in series [1] is reported as “C (>75% of the tested compound remaining)”. The “Assay 2 (SGF) (% Remaining @ 4 hours)” value in series [2] is given as “C (>75% of the tested compound remaining)”.

In the case of `CCCC(=O)O[C@H](C)CC(=O)OCC(C)(C)[C@@H](OC(=O)C[C@@H](C)OC(=O)CCC)C(=O)NCCC(N)=O` [Example 96, [(3R)-4-[(3-amino-3-oxo-propyl)amino]-3-[(3R)-3-butanoyloxybutanoyl]oxy-2,2-dimethyl-4-oxo-butyl] (3R)-3-butanoyloxybutanoate], the “Assay 3 (SIF) (% @ Remaining 4 hours)” value in series [1] was “C (>75% of the tested compound remaining)”. For the same molecule, the “Assay 2 (SGF) (% Remaining @ 4 hours)” value in series [2] is listed as “C (>75% of the tested compound remaining)”.

For `CC(C)(COC(=O)Cc1c[nH]c2ccccc12)[C@@H](OC(=O)Cc1c[nH]c2ccccc12)C(=O)NCCC(N)=O` [Example 97, [(3R)-4-[(3-amino-3-oxo-propyl)amino]-3-[2-(1H-indol-3-yl)acetyl]oxy-2,2-dimethyl-4-oxo-butyl] 2-(1H-indol-3-yl)acetate], the “Assay 3 (SIF) (% @ Remaining 4 hours)” value in series [1] is “C (>75% of the tested compound remaining)”. For the same molecule, in series [2], the “Assay 2 (SGF) (% Remaining @ 4 hours)” value is listed as “C (>75% of the tested compound remaining)”.

As to `CC(C)(COC(=O)CCc1c[nH]c2ccccc12)[C@@H](OC(=O)CCc1c[nH]c2ccccc12)C(=O)NCCC(N)=O` [Example 98, [(3R)-4-[(3-amino-3-oxo-propyl)amino]-3-[3-(1H-indol-3-yl)propanoyloxy]-2,2-dimethyl-4-oxo-butyl] 3-(1H-indol-3-yl)propanoate], the “Assay 3 (SIF) (% @ Remaining 4 hours)” value in series [1] is on record as “A (<25% of the tested compound remaining)”. In addition, in series [2], the “Assay 2 (SGF) (% Remaining @ 4 hours)” value is “C (>75% of the tested compound remaining)”.

Regarding `CC(=O)OCc1cnc(C)c(OC(C)=O)c1COC(C)=O` [Example 99, [5-acetoxy-4-(acetoxymethyl)-6-methyl-3-pyridyl] methyl acetate], in series [1], the “Assay 3 (SIF) (% @ Remaining 4 hours)” value was “C (>75% of the tested compound remaining)”. The “Assay 2 (SGF) (% Remaining @ 4 hours)” value in series [2] is on record as “C (>75% of the tested compound remaining)”.

For `CCCC(=O)OCc1cnc(C)c(OC(=O)CCC)c1COC(=O)CCC` [Example 100, [5-butanoyloxy-4-(butanoyloxymethyl)-6-methyl-3-pyridyl]methyl butanoate], in series [1], the “Assay 3 (SIF) (% @ Remaining 4 hours)” value is recorded as “C (>75% of the tested compound remaining)”. Further, the “Assay 2 (SGF) (% Remaining @ 4 hours)” value in series [2] is given as “C (>75% of the tested compound remaining)”.

For `CCCC(=O)O[C@H](C)CC(=O)OCc1cnc(C)c(OC(=O)C[C@@H](C)OC(=O)CCC)c1COC(=O)C[C@@H](C)OC(=O)CCC` [Example 101, [5-[(3R)-3-butanoyloxybutanoyl]oxy-4-[[(3R)-3-butanoyloxybutanoyl]oxymethyl]-6-methyl-3-pyridyl]methyl (3R)-3-butanoyloxybutanoate], the “Assay 3 (SIF) (% @ Remaining 4 hours)” value in series [1] is listed as “C (>75% of the tested compound remaining)”. Besides, the “Assay 2 (SGF) (% Remaining @ 4 hours)” value in series [2] was “C (>75% of the tested compound remaining)”.

On to `Cc1ncc(COC(=O)Cc2c[nH]c3ccccc23)c(COC(=O)Cc2c[nH]c3ccccc23)c1OC(=O)Cc1c[nH]c2ccccc12` [Example 102, [5-[2-(1H-indol-3-yl)acetyl]oxy-4-[[2-(1H-indol-3-yl)acetyl]oxymethyl]-6-methyl-3-pyridyl]methyl 2-(1H-indol-3-yl)acetate], for which the “Assay 3 (SIF) (% @ Remaining 4 hours)” value in series [1] is on record as “B (25-75% of the tested compound remaining)”. Besides, the “Assay 2 (SGF) (% Remaining @ 4 hours)” value in series [2] is “C (>75% of the tested compound remaining)”.

For the molecule `Cc1ncc(COC(=O)CCc2c[nH]c3ccccc23)c(COC(=O)CCc2c[nH]c3ccccc23)c1OC(=O)CCc1c[nH]c2ccccc12` [Example 103, [5-[3-(1H-indol-3-yl)propanoyloxy]-4-[3-(1H-indol-3-yl)propanoyloxymethyl]-6-methyl-3-pyridyl]methyl3-(1H-indol-3-yl)propanoate], the “Assay 3 (SIF) (% @ Remaining 4 hours)” value in series [1] is listed as “A (<25% of the tested compound remaining)”. Also, the “Assay 2 (SGF) (% Remaining @ 4 hours)” value in series [2] is on record as “C (>75% of the tested compound remaining)”.

Take `O=C(Cc1c[nH]c2ccccc12)OC[C@@H](O)[C@H](COC(=O)Cc1c[nH]c2ccccc12)OC(=O)Cc1c[nH]c2ccccc12` [Example 104, [(2R,3S)-2-hydroxy-3,4-bis[[2-(1H-indol-3-yl)acetyl]oxy]butyl] 2-(1H-indol-3-yl)acetate]: the “Assay 3 (SIF) (% @ Remaining 4 hours)” value in series [1] was “B (25-75% of the tested compound remaining)”. Besides, the “Assay 2 (SGF) (% Remaining @ 4 hours)” value in series [2] is recorded as “C (>75% of the tested compound remaining)”.

In the case of `O=C(Cc1c[nH]c2ccccc12)OC[C@H](OC(=O)Cc1c[nH]c2ccccc12)[C@@H](COC(=O)Cc1c[nH]c2ccccc12)OC(=O)Cc1c[nH]c2ccccc12` [Example 105, [(2R,3S)-2,3,4-tris[[2-(1H-indol-3-yl)acetyl]oxy]butyl] 2-(1H-indol-3-yl)acetate], the “Assay 3 (SIF) (% @ Remaining 4 hours)” value in series [1] is recorded as “B (25-75% of the tested compound remaining)”. The “Assay 2 (SGF) (% Remaining @ 4 hours)” value in series [2] is “C (>75% of the tested compound remaining)”.

Consider `O=C(Cc1c[nH]c2ccccc12)OC[C@@H](OC(=O)Cc1c[nH]c2ccccc12)[C@H]1OC[C@H](OC(=O)Cc2c[nH]c3ccccc23)[C@H]1OC(=O)Cc1c[nH]c2ccccc12` [Example 106, [(2R)-2-[(2R,3R,4S)-3,4-bis[[2-(1H-indol-3-yl)acetyl]oxy]tetrahydrofuran-2-yl]-2-[2-(1H-indol-3-yl)acetyl]oxy-ethyl] 2-(1H-indol-3-yl)acetate], for which the “Assay 3 (SIF) (% @ Remaining 4 hours)” value in series [1] is “C (>75% of the tested compound remaining)”. Moreover, in series [2], the “Assay 2 (SGF) (% Remaining @ 4 hours)” value is “C (>75% of the tested compound remaining)”.

For the molecule `O=C(CCc1c[nH]c2ccccc12)OC[C@@H](OC(=O)CCc1c[nH]c2ccccc12)[C@H]1OC[C@H](OC(=O)CCc2c[nH]c3ccccc23)[C@H]1OC(=O)CCc1c[nH]c2ccccc12` [Example 107, [(2R)-2-[(2R,3R,4S)-3,4-bis[3-(1H-indol-3-yl)propanoyloxy]tetrahydrofuran-2-yl]-2-[3-(1H-indol-3-yl)propanoyloxy]ethyl] 3-(1H-indol-3-yl)propanoate], the “Assay 3 (SIF) (% @ Remaining 4 hours)” value in series [1] is “B (25-75% of the tested compound remaining)”. In addition, in series [2], the “Assay 2 (SGF) (% Remaining @ 4 hours)” value is listed as “C (>75% of the tested compound remaining)”.

Consider `CCCC(=O)O[C@H]1CO[C@H]2[C@@H]1OC[C@H]2OC(=O)CCC` [Example 108, [(3S,3aR,6R,6aR)-6-butanoyloxy-2,3,3a,5,6,6a-hexahydrofuro[3,2-b]furan-3-yl] butanoate], for which the “Assay 3 (SIF) (% @ Remaining 4 hours)” value in series [1] was “B (25-75% of the tested compound remaining)”. In addition, in series [2], the “Assay 2 (SGF) (% Remaining @ 4 hours)” value is reported as “C (>75% of the tested compound remaining)”.

As to `O=C(CCc1c[nH]c2ccccc12)O[C@H]1CO[C@H]2[C@@H]1OC[C@H]2OC(=O)CCc1c[nH]c2ccccc12` [Example 110, [(3S,3aR,6R,6aR)-6-[3-(1H-indol-3-yl)propanoyloxy]-2,3,3a,5,6,6a-hexahydrofuro[3,2-b]furan-3-yl] 3-(1H-indol-3-yl) propanoate], in series [1], the “Assay 3 (SIF) (% @ Remaining 4 hours)” value is given as “A (<25% of the tested compound remaining)”. The “Assay 2 (SGF) (% Remaining @ 4 hours)” value in series [2] is on record as “C (>75% of the tested compound remaining)”.

Take `C[C@@H](O)CC(=O)OCCCNC(=O)[C@H](OC(=O)C[C@@H](C)O)C(C)(C)COC(=O)C[C@@H](C)O` [Example 111, 3-[[(2R)-2,4-bis[[(3R)-3-hydroxybutanoyl]oxy]-3,3-dimethyl-butanoyl]amino]propyl (3R)-3-hydroxybutanoate]: the “Assay 3 (SIF) (% @ Remaining 4 hours)” value in series [1] is recorded as “C (>75% of the tested compound remaining)”. Besides, in series [2], the “Assay 2 (SGF) (% Remaining @ 4 hours)” value was “C (>75% of the tested compound remaining)”.

Regarding `C[C@@H](O)CC(=O)OCC(C)(C)[C@@H](OC(=O)C[C@@H](C)O)C(=O)NCCC(N)=O` [Example 114, [(3R)-4-[(3-amino-3-oxo-propyl)amino]-3-[(3R)-3-hydroxybutanoyl]oxy-2,2-dimethyl-4-oxo-butyl] (3R)-3-hydroxybutanoate], the “Assay 3 (SIF) (% @ Remaining 4 hours)” value in series [1] is “C (>75% of the tested compound remaining)”. Besides, the “Assay 2 (SGF) (% Remaining @ 4 hours)” value in series [2] was “C (>75% of the tested compound remaining)”.
